Results: PubChem BioAssay AID248 (DTP/NCI, 2004)
Toxic doses and inconclusive results are not listed. No stated cut-off is given here; in the data, active means T/C of 150% or more; inactive means T/C below 125%.

System: L1210 leukemia ip in BDF1 mice, survival T/C
Assay: NCI In Vivo Anticancer Drug Screen. Data for tumor model L1210 Leukemia (intraperitoneal) in B6D2F1 (BDF1) mice
Details: endpoint: mean survival time, higher = longer survival
Summary of the method: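 In this screen, tumor-bearing mice given compound are compared to those given vehicle, and their survival values are reported as a treated-to-control quotient.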

[1] = dose: 100.0 mg/kg/injection, schedule: Q04DX003 (ip), vehicle: Klucel (hydroxypropylcellulose) (HPC)
[2] = dose: 200.0 mg/kg/injection, schedule: Q04DX003 (ip), vehicle: Klucel (hydroxypropylcellulose) (HPC)
[3] = dose: 400.0 mg/kg/injection, schedule: Q04DX003 (ip), vehicle: Klucel (hydroxypropylcellulose) (HPC)
[4] = dose: 25.0 mg/kg/injection, schedule: Q04DX002 (ip), vehicle: saline
[5] = dose: 50.0 mg/kg/injection, schedule: Q04DX002 (ip), vehicle: saline
[6] = dose: 100.0 mg/kg/injection, schedule: Q01DX001 (ip), vehicle: saline
[7] = dose: 100.0 mg/kg/injection, schedule: Q04DX002 (ip), vehicle: saline
[8] = dose: 100.0 mg/kg/injection, schedule: Q04DX003 (ip), vehicle: saline with Tween-80
[9] = dose: 200.0 mg/kg/injection, schedule: Q04DX003 (ip), vehicle: saline with Tween-80
[10] = dose: 100.0 mg/kg/injection, schedule: Q04DX002 (ip), vehicle: saline with Tween-80
[11] = dose: 200.0 mg/kg/injection, schedule: Q04DX002 (ip), vehicle: saline with Tween-80
[12] = dose: 400.0 mg/kg/injection, schedule: Q04DX002 (ip), vehicle: saline with Tween-80
[13] = dose: 200.0 mg/kg/injection, schedule: Q01DX001 (ip), vehicle: saline
[14] = dose: 400.0 mg/kg/injection, schedule: Q01DX001 (ip), vehicle: saline

Measured: T/C

C/C(CC(C)C)=N\NC(=O)Nc1ccccc1Cl
inactive: dose: 100.0 mg/kg/injection, schedule: Q01DX009 (ip), vehicle: other 102 % of control | dose: 200.0 mg/kg/injection, schedule: Q01DX009 (ip), vehicle: other 89 % of control | dose: 400.0 mg/kg/injection, schedule: Q01DX009 (ip), vehicle: other 102 % of control

O=C(Nc1ccccc1)Oc1ccc(Br)cc1Br
inactive: dose: 75.0 mg/kg/injection, schedule: Q01DX001 (ip), vehicle: saline 94 % of control | dose: 150.0 mg/kg/injection, schedule: Q01DX001 (ip), vehicle: saline 89 % of control | dose: 300.0 mg/kg/injection, schedule: Q01DX001 (ip), vehicle: saline 94 % of control

S=C(Nc1ccc(Cl)cc1)Nc1ccc(Cl)cc1
inactive: [1] 108 % of control | [2] 103 % of control | [3] 97 % of control

CCCCOc1ccc(C(=O)N/N=C\c2cc(OC)c(OC)c(OC)c2)cc1
inactive: [1] 94 % of control | [2] 94 % of control | [3] 91 % of control

CCCCCC/C=N\N=C(N)N
inactive: dose: 15.0 mg/kg/injection, schedule: Q01DX Z (ip), vehicle: saline 97 % of control | dose: 30.0 mg/kg/injection, schedule: Q01DX Z (ip), vehicle: saline 97 % of control | dose: 60.0 mg/kg/injection, schedule: Q01DX Z (ip), vehicle: saline 102 % of control | dose: 60.0 mg/kg/injection, schedule: Q01DX Z (oral), vehicle: saline 100 % of control | dose: 120.0 mg/kg/injection, schedule: Q01DX Z (ip), vehicle: saline 88 % of control | dose: 120.0 mg/kg/injection, schedule: Q01DX Z (oral), vehicle: saline 98 % of control | dose: 240.0 mg/kg/injection, schedule: Q01DX Z (oral), vehicle: saline 91 % of control | dose: 480.0 mg/kg/injection, schedule: Q01DX Z (oral), vehicle: saline 98 % of control

CC(Cc1ccccc1)N(C)C (stereo not given)
inactive: dose: 12.5 mg/kg/injection, schedule: Q01DX001 (ip), vehicle: saline 102 % of control | dose: 25.0 mg/kg/injection, schedule: Q01DX001 (ip), vehicle: saline 94 % of control | dose: 25.0 mg/kg/injection, schedule: Q04DX003 (ip), vehicle: saline 101 % of control | dose: 50.0 mg/kg/injection, schedule: Q01DX001 (ip), vehicle: saline 94 % of control | dose: 50.0 mg/kg/injection, schedule: Q04DX003 (ip), vehicle: saline 101 % of control

CCOC(=O)Nc1cc(N)c2nnn(C(c3ccccc3)c3ccccc3)c2n1
inactive: [1] 92 % of control | [2] 91 % of control | [3] 91 % of control

CCCCCCCC(O)CCCC (stereo not given)
inactive: dose: 100.0 mg/kg/injection, schedule: Q01DX009 (ip), vehicle: Klucel (hydroxypropylcellulose) (HPC) 100 % of control | [1] 95 % of control | dose: 200.0 mg/kg/injection, schedule: Q01DX009 (ip), vehicle: Klucel (hydroxypropylcellulose) (HPC) 104 % of control | [2] 103 % of control | dose: 400.0 mg/kg/injection, schedule: Q01DX009 (ip), vehicle: Klucel (hydroxypropylcellulose) (HPC) 104 % of control | [3] 98 % of control

CO/C(=N\S(=O)(=O)c1ccccc1)C1CC=CCC1/C(=N\S(=O)(=O)c1ccccc1)OC (stereo not given)
inactive: [1] 100 % of control | [2] 94 % of control | [3] 100 % of control

CC(=O)OC1CCC2(C)C(=CCC3C2CCC2(C)C(OC(=O)c4ccccc4)CCC32)C1 (stereo not given)
inactive: dose: 100.0 mg/kg/injection, schedule: Q01DX009 (ip), vehicle: saline with Tween-80 89 % of control | dose: 200.0 mg/kg/injection, schedule: Q01DX009 (ip), vehicle: saline with Tween-80 110 % of control | dose: 400.0 mg/kg/injection, schedule: Q01DX009 (ip), vehicle: saline with Tween-80 96 % of control

BrC1CC2OC2C2OC12 (stereo not given)
inactive: [4] 108 % of control | [5] 105 % of control | [6] 100 % of control | [7] 102 % of control

NC(=O)CN1C(=O)C2C3CCC(C3)C2C1=O (stereo not given)
inactive: [8] 107 % of control | [9] 107 % of control | dose: 400.0 mg/kg/injection, schedule: Q04DX003 (ip), vehicle: saline with Tween-80 107 % of control

CCOC(=O)CNC(=O)C=[N+]=[N-]
inactive: dose: 350.0 mg/kg/injection, schedule: Q01DX Z (ip), vehicle: water 116 % of control | dose: 500.0 mg/kg/injection, schedule: Q01DX Z (ip), vehicle: water 91 % of control

CCOC(=O)/C(C#N)=C/c1cccn1Cc1cc2ccccc2c2ccccc12
inactive: [4] 111 % of control | [5] 111 % of control | [7] 105 % of control

CC(C)(C)C(=O)[CH-]C(=O)C(C)(C)C.CC(C)(C)C(=O)[CH-]C(=O)C(C)(C)C.CC(C)(C)C(=O)[CH-]C(=O)C(C)(C)C.[Er+3]
inactive: dose: 50.0 mg/kg/injection, schedule: Q04DX002 (ip), vehicle: saline with Tween-80 90 % of control | [10] 90 % of control | [11] 90 % of control | [12] 90 % of control

Nc1ccccc1SC1CC(=O)N(c2ccc(F)cc2)C1=O (stereo not given)
inactive: dose: 100.0 mg/kg/injection, schedule: Q04DX003 (ip), vehicle: carboxymethylcellulose (CMC) 92 % of control | dose: 200.0 mg/kg/injection, schedule: Q04DX003 (ip), vehicle: carboxymethylcellulose (CMC) 92 % of control | dose: 400.0 mg/kg/injection, schedule: Q04DX003 (ip), vehicle: carboxymethylcellulose (CMC) 91 % of control

Cc1cc(C)c(C(=O)c2ccccc2C(=O)OC(=O)c2ccccc2C(=O)c2c(C)cc(C)cc2C)c(C)c1
inactive: [10] 88 % of control

NNc1ccc(S(=O)(=O)C(F)F)cc1
inactive: [6] 95 % of control | [13] 92 % of control | [14] 93 % of control

Clc1ccc(C[P+](c2ccccc2)(c2ccccc2)c2ccccc2)c(Cl)c1
inactive: dose: 4.5 mg/kg/injection, schedule: Q01DX009 (ip), vehicle: saline 109 % of control | dose: 6.25 mg/kg/injection, schedule: Q01DX009 (ip), vehicle: saline with Tween-80 100 % of control | dose: 9.0 mg/kg/injection, schedule: Q01DX009 (ip), vehicle: saline 106 % of control | dose: 9.38 mg/kg/injection, schedule: Q01DX001 (ip), vehicle: water 100 % of control | dose: 12.5 mg/kg/injection, schedule: Q01DX009 (ip), vehicle: saline with Tween-80 94 % of control

CCCCSc1nc(SCCCC)nc(SCCCC)n1
inactive: [10] 96 % of control | [11] 111 % of control | [12] 89 % of control

OC(CC(O)(C(F)(F)Cl)C(F)(F)Cl)c1cccs1 (stereo not given)
inactive: dose: 100.0 mg/kg/injection, schedule: Q04DX003 (ip), vehicle: saline 93 % of control | dose: 200.0 mg/kg/injection, schedule: Q04DX003 (ip), vehicle: saline 95 % of control | dose: 400.0 mg/kg/injection, schedule: Q04DX003 (ip), vehicle: saline 105 % of control

COc1cc(/C=N/NC(=O)CC(C)O)ccc1O (stereo not given)
inactive: [6] 104 % of control | [13] 102 % of control | [14] 104 % of control

O=S(=O)(Nc1ccc(NS(=O)(=O)c2ccccc2)cc1)c1ccccc1
inactive: dose: 100.0 mg/kg/injection, schedule: Q01DX009 (ip), vehicle: saline sonified 97 % of control | [1] 93 % of control | dose: 200.0 mg/kg/injection, schedule: Q01DX009 (ip), vehicle: saline sonified 104 % of control | [2] 98 % of control | dose: 400.0 mg/kg/injection, schedule: Q01DX009 (ip), vehicle: saline sonified 98 % of control | [3] 90 % of control

CN(C)CCC/C=N/Nc1ccc(Cl)cc1[N+](=O)[O-]
inactive: [8] 96 % of control | [9] 91 % of control
